Measurements published in patent US20080058213A1, “Benzoxazole Compounds” (priority 2004, published 2008).

Key:
Format in all cases: in vivo
[1] = tested on: barnyard grass (Echinochloa crusgalli); test: Weed control test for paddy field (Test Example 1): barnyard grass; details: paddy pots, treated at 1.0 leaf stage of barnyard grass, examined after 3 weeks
From the text: (§1) Paddy field soil was filled in 1/10,000 are pots, kneaded with adequate amounts of water and chemical fertilizer, seeded with barnyard grass (Echinochloa crusgalli), Monochoria (Monochoria vaginalis), Japanese bulrush (Scirpus juncoides) and flat sedge (Cyperus serotinus), and further transplanted with 2.0 leaf stage of rice plant. The pots were maintained under the water-filled condition to a depth of 3 cm.
(§2) Wettable powders containing the compounds (1) as identified in Table 1, which were formulated following Production Example 2, were diluted with adequate amount of water and applied to the pots dropwise with pippet at a prescribed dose of the active ingredients per are, at 1.0 leaf stage of the barnyard grass.
(§3) After placing the pots in a glasshouse which was controlled at an average temperature of 25° C. for 3 weeks, herbicidal effect was examined.
(§4) Evaluation of the herbicidal effect is shown in the following six grades, by comparing the condition of untreated control and growth inhibition (%): • 0: 0%-less than 20% • 1: 20%-less than 40% • 2: 40%-less than 60% • 3: 60%-less than 80% • 4: 80%-less than 100% • 5: 100%.

[2] = tested on: Monochoria (Monochoria vaginalis); test: Weed control test for paddy field (Test Example 1): Monochoria; details: paddy pots, treated at 1.0 leaf stage of barnyard grass, examined after 3 weeks
From the text: as §1, §2, §3, §4

[3] = tested on: Japanese bulrush (Scirpus juncoides); test: Weed control test for paddy field (Test Example 1): Japanese bulrush; details: paddy pots, treated at 1.0 leaf stage of barnyard grass, examined after 3 weeks
From the text: as §1, §2, §3, §4

[4] = tested on: flat sedge (Cyperus serotinus); test: Weed control test for paddy field (Test Example 1): flat sedge; details: paddy pots, treated at 1.0 leaf stage of barnyard grass, examined after 3 weeks
From the text: as §1, §2, §3, §4

[5] = tested on: rice plant; test: Weed control test for paddy field (Test Example 1): phytotoxicity to rice plant; details: in vivo
From the text: as §1, §2, §3
(§5) Evaluation of phytotoxicity is shown in the following six grades, as compared with the condition of untreated control: • 0: normal growth • 1: little damaged • 2: low damaged • 3: medium damaged • 4: serious damaged • 5: complete killed.

[6] = tested on: southern crabgrass (Digitaria ciliaris); test: Soil treatment test for upland field (Test Example 2): southern crabgrass; details: soil treatment before germination, examined after 3 weeks
From the text: as §4
(§6) Upland field soil was filled in 1/3,000 are pots, seeded with southern crabgrass (Digitaria ciliaris), common lambsquaters (Chenopodium album), slender amaranth (Amaranthus viridis), common purslane (Portulaca oleracea), velvetleaf (Abutilon theophrasti), wheat, corn and soybean. The seeds were covered up with the soil.
(§7) Wettable powders containing the object compounds (1) as identified in Table 1, which were formulated following Preparation Example 2, were diluted with adequate amount of water to secure the prescribed dose of the active ingredient, and uniformly sprayed onto the surface soil layer after the seeding and before germination of the weeds, at an application water of 15 liters per are.
(§8) After placing the test pots in a glasshouse which was kept at an average temperature of 25° C. for 3 weeks, the herbicidal effect was examined.
(§9) Evaluations of the herbicidal effect and phytotoxicity were made in the manner similar to those in the above Test Example 1.

[7] = tested on: common lambsquaters (Chenopodium album); test: Soil treatment test for upland field (Test Example 2): common lambsquaters; details: soil treatment before germination, examined after 3 weeks
From the text: as §4, §6, §7, §8, §9

[8] = tested on: slender amaranth (Amaranthus viridis); test: Soil treatment test for upland field (Test Example 2): slender amaranth; details: soil treatment before germination, examined after 3 weeks
From the text: as §4, §6, §7, §8, §9

[9] = tested on: common purslane (Portulaca oleracea); test: Soil treatment test for upland field (Test Example 2): common purslane; details: soil treatment before germination, examined after 3 weeks
From the text: as §4, §6, §7, §8, §9

[10] = tested on: velvetleaf (Abutilon theophrasti); test: Soil treatment test for upland field (Test Example 2): velvetleaf; details: soil treatment before germination, examined after 3 weeks
From the text: as §4, §6, §7, §8, §9

[11] = tested on: wheat; test: Soil treatment test for upland field (Test Example 2): phytotoxicity to wheat; details: soil treatment before germination, examined after 3 weeks
From the text: as §5, §6, §8

[12] = tested on: corn; test: Soil treatment test for upland field (Test Example 2): phytotoxicity to corn; details: soil treatment before germination, examined after 3 weeks
From the text: as §5, §6, §8

[13] = tested on: soybean; test: Soil treatment test for upland field (Test Example 2): phytotoxicity to soybean; details: soil treatment before germination, examined after 3 weeks
From the text: as §5, §6, §8

[14] = tested on: southern crabgrass; test: Foliage treatment test for upland field (Test Example 3): southern crabgrass; details: foliage treatment at 1.0-2.0 leaf stage of southern crabgrass, examined after 3 weeks
From the text: as §4
(§10) Compost mixed soil was filled in 1/3,000 are pots, seeded with southern crabgrass, common lambsquaters, slender amaranth, common purslane, velvetleaf, wheat, corn and soybean. The seeds were covered up with the soil and cultured in a glasshouse kept at 25° C. on the average.
(§11) Wettable powders containing the object compounds (1) as identified in Table 1, which were formulated following Preparation Example 2, were diluted with water to the prescribed dose of the active ingredient, and uniformly sprayed onto the weeds at 1.0-2.0 leaf stage of the southern crabgrass at an application water of 15 liters per are.
(§12) After placing the test pots in a grasshouse kept at 25° C. on the average for 3 weeks, the herbicidal effect was examined.
(§13) Evaluation of the herbicidal effect was conducted in the similar manner to Test Example 1.

[15] = tested on: common lambsquaters; test: Foliage treatment test for upland field (Test Example 3): common lambsquaters; details: foliage treatment at 1.0-2.0 leaf stage of southern crabgrass, examined after 3 weeks
From the text: as §4, §10, §11, §12, §13

[16] = tested on: slender amaranth; test: Foliage treatment test for upland field (Test Example 3): slender amaranth; details: foliage treatment at 1.0-2.0 leaf stage of southern crabgrass, examined after 3 weeks
From the text: as §4, §10, §11, §12, §13

[17] = tested on: common purslane; test: Foliage treatment test for upland field (Test Example 3): common purslane; details: foliage treatment at 1.0-2.0 leaf stage of southern crabgrass, examined after 3 weeks
From the text: as §4, §10, §11, §12, §13

[18] = tested on: velvetleaf; test: Foliage treatment test for upland field (Test Example 3): velvetleaf; details: foliage treatment at 1.0-2.0 leaf stage of southern crabgrass, examined after 3 weeks
From the text: as §4, §10, §11, §12, §13

[19] = tested on: wheat; test: Foliage treatment test for upland field (Test Example 3): phytotoxicity to wheat; details: foliage treatment at 1.0-2.0 leaf stage of southern crabgrass, examined after 3 weeks
Description: as §5, §10, §12

[20] = tested on: corn; test: Foliage treatment test for upland field (Test Example 3): phytotoxicity to corn; details: foliage treatment at 1.0-2.0 leaf stage of southern crabgrass, examined after 3 weeks
Description: as §5, §10, §12

[21] = tested on: soybean; test: Foliage treatment test for upland field (Test Example 3): phytotoxicity to soybean; details: foliage treatment at 1.0-2.0 leaf stage of southern crabgrass, examined after 3 weeks
Description: as §5, §10, §12

COC/C(=C\c1cccc(C(F)(F)F)c1)c1nc2cc(Cl)ccc2o1 [Compound 3]
4 (80%-less than 100%): Herbicidal Effect Japanese bulrush ([3]; dose 2.5 g ai/a) | Herbicidal Effect velvetleaf ([10]; dose 5 g ai/a)
0: Phytotoxicity wheat ([11]; dose 2.5 g ai/a) | Phytotoxicity wheat ([11]; dose 5 g ai/a) | Phytotoxicity corn ([12]; dose 2.5 g ai/a) | Phytotoxicity soybean ([13]; dose 2.5 g ai/a) | Phytotoxicity soybean ([13]; dose 5 g ai/a)
5 (100%): Herbicidal Effect Barnyard grass ([1]; dose 2.5 g ai/a) | Herbicidal Effect Barnyard grass ([1]; dose 5 g ai/a) | Herbicidal Effect Monochoria vaginalis ([2]; dose 2.5 g ai/a) | Herbicidal Effect Monochoria vaginalis ([2]; dose 5 g ai/a) | Herbicidal Effect Japanese bulrush ([3]; dose 5 g ai/a) | Herbicidal Effect Flat sedge ([4]; dose 5 g ai/a) | Herbicidal Effect southern crabgrass ([6]; dose 2.5 g ai/a) | Herbicidal Effect southern crabgrass ([6]; dose 5 g ai/a) | Herbicidal Effect common lambsquaters ([7]; dose 2.5 g ai/a) | Herbicidal Effect common lambsquaters ([7]; dose 5 g ai/a) | Herbicidal Effect slender amaranth ([8]; dose 2.5 g ai/a) | Herbicidal Effect slender amaranth ([8]; dose 5 g ai/a) | Herbicidal Effect common purslane ([9]; dose 2.5 g ai/a) | Herbicidal Effect common purslane ([9]; dose 5 g ai/a) | Herbicidal Effect southern crabgrass ([14]; dose 2.5 g ai/a) | Herbicidal Effect southern crabgrass ([14]; dose 5 g ai/a) | Herbicidal Effect Common lambsquatters ([15]; dose 2.5 g ai/a) | Herbicidal Effect Common lambsquatters ([15]; dose 5 g ai/a) | Herbicidal Effect slender amaranth ([16]; dose 2.5 g ai/a) | Herbicidal Effect slender amaranth ([16]; dose 5 g ai/a) | Herbicidal Effect common purslane ([17]; dose 2.5 g ai/a) | Herbicidal Effect common purslane ([17]; dose 5 g ai/a) | Herbicidal Effect velvetleaf ([18]; dose 2.5 g ai/a) | Herbicidal Effect velvetleaf ([18]; dose 5 g ai/a)
3 (60%-less than 80%): Herbicidal Effect Flat sedge ([4]; dose 2.5 g ai/a) | Herbicidal Effect velvetleaf ([10]; dose 2.5 g ai/a)
2: Phytotoxicity soybean ([21]; dose 5 g ai/a)
1: Phytotoxicity Rice plant [5] | Phytotoxicity corn ([12]; dose 5 g ai/a) | Phytotoxicity wheat ([19]; dose 2.5 g ai/a) | Phytotoxicity wheat ([19]; dose 5 g ai/a) | Phytotoxicity corn ([20]; dose 2.5 g ai/a) | Phytotoxicity corn ([20]; dose 5 g ai/a) | Phytotoxicity soybean ([21]; dose 2.5 g ai/a)
